These results are taken from PMC7496286, “The Selectivity of Fosfosal for STAT5b over STAT5a is Mediated by Arg566 in the Linker Domain” (Chembiochem, 2020).

The Kd is a measure of binding affinity in units of concentration. Read a high Kd as lower affinity. As a reminder, the IC50 is the concentration that gives 50% inhibition. Low values mean higher potency, high ones lower potency. The term Ki denotes a measure of affinity in units of concentration, obtained from inhibition or displacement.

One experiment addresses T1, STAT5a Trp566Arg (Homo sapiens, UniProt P42229, W566R).
T1 construct: His; made in house
T1 sequence (P42229 1-794 W566R): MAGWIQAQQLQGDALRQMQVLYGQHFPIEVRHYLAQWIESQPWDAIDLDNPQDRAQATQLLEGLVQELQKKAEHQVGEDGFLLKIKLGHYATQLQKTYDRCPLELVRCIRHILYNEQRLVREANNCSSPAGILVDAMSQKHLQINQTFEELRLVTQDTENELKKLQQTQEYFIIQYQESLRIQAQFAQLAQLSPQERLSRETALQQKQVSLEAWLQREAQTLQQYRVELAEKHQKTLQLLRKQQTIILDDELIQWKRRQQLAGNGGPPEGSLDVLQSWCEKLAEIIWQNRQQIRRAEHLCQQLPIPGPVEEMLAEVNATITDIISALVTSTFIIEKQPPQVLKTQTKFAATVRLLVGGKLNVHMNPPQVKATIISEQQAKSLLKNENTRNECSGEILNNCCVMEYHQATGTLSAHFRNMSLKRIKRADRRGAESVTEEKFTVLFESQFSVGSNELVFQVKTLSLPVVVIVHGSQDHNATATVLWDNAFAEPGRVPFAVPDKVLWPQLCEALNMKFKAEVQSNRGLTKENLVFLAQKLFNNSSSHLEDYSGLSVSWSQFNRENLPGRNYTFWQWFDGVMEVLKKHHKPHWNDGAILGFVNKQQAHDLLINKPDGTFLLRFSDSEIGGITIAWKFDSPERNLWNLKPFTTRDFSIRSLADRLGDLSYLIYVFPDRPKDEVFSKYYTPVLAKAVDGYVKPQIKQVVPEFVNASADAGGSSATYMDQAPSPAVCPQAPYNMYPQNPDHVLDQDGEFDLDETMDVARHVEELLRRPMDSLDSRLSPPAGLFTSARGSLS
As to the kind of experiment: FP-based competitive binding assay, STAT5a Trp566Arg. Here is the method:
(§1) Fluorescence polarization assays
(§2) The ability of test compounds to displace 5-carboxyfluorescein-GY(PO3H2)LVLDKW (final concentration: 10 nM) from the SH2 domain of STAT5a/b proteins was analyzed. Proteins […]
(§3) was applied in dilution series comprising the following concentrations: 0.024 – 200 µM […]
(§4) and 0.146 – 600 µM (STAT5b Arg566Glu), respectively. The assays were performed in buffer containing 10 mM Tris, 50 mM NaCl, 1 mM DTT, 1 mM EDTA and 0.1% (v/v) NP-40. Fosfosal was dissolved in DMSO. STAT5a/b proteins and fosfosal were incubated at room temperature for 1 h before adding peptide. Samples were transferred to 384-well microtiter plates and fluorescence polarization was read after a further 1 h incubation time. All measurements were performed in triplicate (n=3), except for STAT5b (n=6) and STAT5a Trp566Arg (n=4). Percent binding was calculated based on a logarithmic curve fit using OriginPro 8G software. IC50 values were converted to Ki values using the published equation.[4] […]
(§5) [4] Z. Nikolovska-Coleska, R. Wang, X. Fang, H. Pan, Y. Tomita, P. Li, P. P. Roller, K.
(§6) Krajewski, N. G. Saito, J. A. Stuckey, S. Wang, Anal. Biochem. 2004, 332, 261-273.

Experiment [1] deals with T2, STAT5b-7M (Arg566Trp/Gln636Pro/Met639Asn/Phe640Leu/Met644Lys/Asn664Ser/Tyr679Phe) (Homo sapiens, UniProt P51692, F640L/M639N/M644K/N664S/Q636P/R566W/Y679F).
T2 construct: His; made in house
T2 sequence (P51692 1-787 R566W/Q636P/M639N/F640L/M644K/N664S/Y679F): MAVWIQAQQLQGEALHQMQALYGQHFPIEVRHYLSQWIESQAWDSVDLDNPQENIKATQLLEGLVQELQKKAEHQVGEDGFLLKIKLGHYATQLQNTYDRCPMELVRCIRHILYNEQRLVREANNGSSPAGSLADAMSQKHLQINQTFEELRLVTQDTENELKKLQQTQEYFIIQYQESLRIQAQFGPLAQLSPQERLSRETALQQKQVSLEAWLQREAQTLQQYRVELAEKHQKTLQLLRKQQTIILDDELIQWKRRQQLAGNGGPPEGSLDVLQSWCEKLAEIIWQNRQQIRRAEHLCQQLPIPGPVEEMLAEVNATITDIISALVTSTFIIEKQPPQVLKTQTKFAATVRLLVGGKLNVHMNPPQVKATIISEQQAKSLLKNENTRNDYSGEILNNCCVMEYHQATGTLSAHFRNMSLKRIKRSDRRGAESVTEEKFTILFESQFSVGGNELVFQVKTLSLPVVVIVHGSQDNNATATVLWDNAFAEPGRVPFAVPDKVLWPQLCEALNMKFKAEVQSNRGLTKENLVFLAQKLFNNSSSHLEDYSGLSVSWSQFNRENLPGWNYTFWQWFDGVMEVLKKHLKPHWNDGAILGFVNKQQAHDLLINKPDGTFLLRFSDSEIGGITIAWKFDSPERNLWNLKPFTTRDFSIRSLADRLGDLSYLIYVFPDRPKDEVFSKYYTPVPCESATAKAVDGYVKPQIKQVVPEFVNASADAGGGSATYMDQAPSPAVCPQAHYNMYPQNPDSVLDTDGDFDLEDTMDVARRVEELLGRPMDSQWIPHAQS
As to the kind of experiment: FP-based competitive binding assay, STAT5b-7M. Here is the method: as §1, §2, §3, §4, §5, §6

As to `CC(C)C[C@H](NC(=O)[C@H](Cc1ccc(OP(=O)(O)O)cc1)NC(=O)CNC(=O)c1ccc2c(c1)C(=O)OC21c2ccc(O)cc2Oc2cc(O)ccc21)C(=O)N[C@H](C(=O)N[C@@H](CC(C)C)C(=O)N[C@@H](CC(=O)O)C(=O)N[C@@H](CCCCN)C(=O)N[C@@H](Cc1c[nH]c2ccccc12)C(=O)O)C(C)C` [5-carboxyfluorescein-GY(PO3H2)LVLDKW], the Kd at STAT5a Trp566Arg was 0.043 µM; in experiment [1], 0.246 µM.

Take `O=C(O)c1ccccc1OP(=O)(O)O` [fosfosal, O‐phosphorylated salicylic acid]: the IC50 on STAT5a Trp566Arg (STAT5a Trp566Arg) came to 21 ± 1.5 µM; in experiment [1] (STAT5b-7M), 379 ± 7 µM. The Ki at STAT5a Trp566Arg (STAT5a Trp566Arg, Ki calculated from IC50, n=4) is 10.2 ± 0.7 µM; in experiment [1] (STAT5b-7M, Ki calculated from IC50) it was 189 ± 3 µM. On STAT5a Trp566Arg (ratio of Ki values), the “increase of activity against STAT5a Trp566Arg compared to wild type STAT5a” value is 14 fold.
